Like-named read-outs stand apart in the source and are kept apart here.
What was measured:
LOUCY = assay: CellTiter-Glo viability, LOUCY; assay type: cell-based; details: read-out: IC50, CellTiter-Glo
PF-382 = assay: CellTiter-Glo viability, PF-382; assay type: cell-based; details: read-out: IC50, CellTiter-Glo
RS4;11 = assay: CellTiter-Glo viability, RS4; assay type: cell-based; details: for IC50: Homo sapiens, RS4-11, 24 h, read-out: IC50, CellTiter-Glo
MOLT4 = assay: CellTiter-Glo viability, MOLT4; assay type: cell-based; details: read-out: IC50, CellTiter-Glo
CCRF-CEM = assay: CellTiter-Glo viability, CCRF-CEM; assay type: cell-based
[1] = test system: primary CLL cells cultured with or without NK Tert stroma; assay: Primary CLL cells with or without NK Tert stroma, Annexin V / TMRM; assay type: cell-based; details: Homo sapiens, CLL cell
[2] = Single-dose dog PK and platelet toxicity study; assay type: in vivo; details: 25 mg/kg single oral dose
platelets = assay: 14-day repeat-dose non-GLP platelet toxicity study in dogs; assay type: in vivo, dog; details: oral once daily
[3] = test system: venetoclax-relapsed primary CLL cells; assay: TMRM / Annexin V apoptosis assay, venetoclax-relapsed primary CLL cells; assay type: cell-based; details: Homo sapiens, CLL cell, read-out: IC50, apoptosis (TMRM and Annexin V)
[4] = test system: primary CLL cells co-cultured on HS-5 stromal cells; assay: Primary CLL cells co-cultured on HS-5 stroma, Annexin V / TMRM; assay type: cell-based, human; details: HS-5 co-culture 24 hr
in vitro = details: human
[5] = test system: treatment-naïve primary CLL cells; assay: TMRM / Annexin V apoptosis assay, treatment-naïve primary CLL cells; assay type: cell-based; details: Homo sapiens, CLL cell, 18 h, read-out: IC50, apoptosis (TMRM and Annexin V)
RS4;11 WT BCL2 xenograft = assay: RS4; assay type: in vivo, mouse; details: 6.25 mg/kg orally once daily for 28 days
[6] = test system: RS4;11 cells with WT BCL2; assay: TMRM / Annexin V staining, RS4; assay type: cell-based; details: Homo sapiens, RS4-11, 72 h, read-out: IC50, TMRM / Annexin V
[7] = test system: OSU-CLL BCL2 knockout (KO) cells; assay: CellTiter-Glo viability, OSU-CLL BCL2 KO; assay type: cell-based; details: 72 hr, above 200 nM
OSU-CLL xenograft = assay: OSU-CLL xenograft; assay type: in vivo, mouse; details: 50 mg/kg daily oral gavage
[8] = read-out: IC50, CLL cells co-cultured with NK Tert cells
[9] = read-out: IC50, CLL cells without stromal protection

Row | Compound | IC50 (LOUCY; 24 h) | IC50 [1, 8] | IC50 [1, 9] | maximum reduction in platelets [2] | IC50 (RS4;11) | IC50 [3] | effect of HS-5 stroma on sensitivity of CLL cells [4] | IC50 (in vitro) | IC50 [5] | also measured
1 | Cc1c(-c2ccc(N3CCc4cccc(C(=O)Nc5nc6ccccc6s5)c4C3)nc2C(=O)O)cnn1CC12CC3CC(CC(C3)C1)C2 [A-1331852] | – | – | – | – | – | – | – | – | – | IC50 (LOUCY; LOUCY, 24 hr): 130 nM; IC50 (PF-382; PF-382, 24 hr): 46.6 nM; IC50, CellTiter-Glo (RS4;11; RS4;11, 24 hr): not effective; IC50 (MOLT4; MOLT4, 24 hr): 5.5 nM; IC50 (CCRF-CEM; read-out: IC50, CellTiter-Glo, 24 hr): 13.9 nM
2 | CC1(C)CCC(c2ccc(Cl)cc2)=C(CN2CCN(c3ccc(C(=O)NS(=O)(=O)c4ccc(N[C@H](CCN5CCOCC5)CSc5ccccc5)c(S(=O)(=O)C(F)(F)F)c4)cc3)CC2)C1 [navitoclax] | 47.4 nM | 16 nM | 5.9 nM | 97% | 42.1 nM | 4.13 nM | does not alter the sensitivity | 0.17 µM | 10.1 nM | dose at which platelet toxicity was induced (platelets): > 3 mg/kg; IC50 (PF-382; Homo sapiens, PF-382, 24 h): 379 nM; IC50 (MOLT4; Homo sapiens, MOLT-4, 24 h): 291 nM; IC50 (CCRF-CEM; Homo sapiens, 24 h, read-out: IC50, CellTiter-Glo): 492 nM
3 | CC1(C)CCC(CN2CCN(c3ccc(C(=O)NS(=O)(=O)c4ccc(NCC5CCOCC5)c([N+](=O)[O-])c4)c(Oc4cnc5[nH]ccc5c4)c3)CC2)=C(c2ccc(Cl)cc2)C1 [venetoclax] | 125 nM | 1.2 nM | 0.908 nM | 6% | 4.7 nM | 16 nM | does not alter the sensitivity | 25 µM | 3.8 nM | median survival (RS4;11 WT BCL2 xenograft): 59 days; tumor volume upon stopping treatment (RS4;11 WT BCL2 xenograft): relapsed and exhibited increased tumor growth; plasma persistence / clearance at 30 hr post treatment [2]: persisted in plasma; IC50 [6]: 3.58 nM; plateau of killing [7]: 50%; platelet counts throughout treatment (OSU-CLL xenograft): maintained similar platelet counts; survival compared to vehicle (OSU-CLL xenograft): significantly improved the survival

From publication PMC11694131 (Haematologica, 2024)
